Read-outs that look alike come from different tables or passages of the source.
System: HBV rcDNA in HepDE19 cells
Test: HepDE19 assay with bDNA quantitation of HBV rcDNA
Format: cell-based, hepatitis B virus
Settings: read-out: DE-19bDNA EC50
In short: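 HepDE19 cells were induced by tetracycline withdrawal, then treated with compounds (0.5% DMSO final) for 7 days at 37 °C. HBV rcDNA measured by bDNA assay with HBV-specific probes. Viability assessed on replicate plates (5,000 cells/well, 4 days) by CellTiter-Glo ATP content.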

[1] = Hepatitis B virus, HepDE19, 168 h, HepDE19 cells, 7 day incubation, rcDNA measured by Quantigene 2.0 bDNA assay, top concentration 25 µM
[2] = HepDE19 cells, 7 day incubation, rcDNA measured by Quantigene 2.0 bDNA assay, top concentration 25 µM
[3] = Hepatitis B virus, HepDE19, 168 h

Compound	EC50 [1] [nM]	EC50 [2] [nM]	other results
CC(c1n[nH]c(=O)c2cc(F)c(F)cc12)N(C)C(=O)Nc1ccc(F)c(Cl)c1 (racemic) [Compound 29, 3-(3-chloro-4-fluorophenyl)-1-(1-(6,7-difluoro-4-oxo-3,4-dihydrophthalazin-1-yl)ethyl)-1-methylurea]	23		
CC(C)CN(C(=O)Nc1ccc(F)c(Cl)c1)C(C)c1n[nH]c(=O)c2ccccc12 (single isomer, unassigned) [Compound 6, 3-(3-chloro-4-fluoro-phenyl)-1-isobutyl-1-[1-(4-oxo-3H-phthalazin-1-yl)ethyl]urea]		1700	
CC(C)CN(C(=O)Nc1ccc(F)cc1)C(C)c1n[nH]c(=O)c2cc(F)ccc12 (single isomer, unassigned) [Compound 21, 1-(1-(6-fluoro-4-oxo-3,4-dihydrophthalazin-1-yl)ethyl)-3-(4-fluorophenyl)-1-isobutylurea]		2400	
CC(c1n[nH]c(=O)c2cc(F)c(F)cc12)N(C)C(=O)c1ccc(Cl)c(F)c1 (racemic) [Compound 64, 4-chloro-N-(1-(6,7-difluoro-4-oxo-3,4-dihydrophthalazin-1-yl)ethyl)-3-fluoro-N-methylbenzamide]	140		
CC(C)CN(C(=O)Nc1ccc(F)cc1)C(C)c1n[nH]c(=O)c2cc(Cl)ccc12 (racemic) [Compound 11, 1-(1-(6-chloro-4-oxo-3,4-dihydrophthalazin-1-yl)ethyl)-3-(4-fluorophenyl)-1-isobutylurea]	40		
CC(c1n[nH]c(=O)c2cc(F)c(F)cc12)N(C)C(=O)c1cc2c(F)cccn2c1 (racemic) [Compound 77, N-(1-(6,7-difluoro-4-oxo-3,4-dihydrophthalazin-1-yl)ethyl)-8-fluoro-N-methylindolizine-2-carboxamide]	8380		
CC(c1n[nH]c(=O)c2cc(F)c(F)cc12)N(C)C(=O)c1cc2ccc(F)cc2[nH]1 (racemic) [Compound 52, N-(1-(6,7-difluoro-4-oxo-3,4-dihydrophthalazin-1-yl)ethyl)-6-fluoro-N-methyl-1H-indole-2-carboxamide]	43		
CC(c1n[nH]c(=O)c2cc(F)ccc12)N(C)C(=O)Nc1ccc(F)cc1 (racemic) [Compound 18, 1-(1-(6-fluoro-4-oxo-3,4-dihydrophthalazin-1-yl)ethyl)-3-(4-fluorophenyl)-1-methylurea]	500		
CC(c1n[nH]c(=O)c2cc(F)c(F)cc12)N(C)C(=O)c1ccc(F)c(F)c1 (racemic) [Compound 70, N-(1-(6,7-difluoro-4-oxo-3,4-dihydrophthalazin-1-yl)ethyl)-3,4-difluoro-N-methylbenzamide]	890		
CC(c1n[nH]c(=O)c2cc(F)c(F)cc12)N(C)C(=O)c1cc2c(C(F)F)cc(F)cc2[nH]1 (single isomer, unassigned) [Compound 97, N-(1-(6,7-difluoro-4-oxo-3,4-dihydrophthalazin-1-yl)ethyl)-4-(difluoromethyl)-6-fluoro-N-methyl-1H-indole-2-carboxamide]		20	
CC(c1n[nH]c(=O)c2cc(F)c(F)cc12)N(C)C(=O)c1ccc2c(ccn2C)c1 (single isomer, unassigned) [Compound 107, N-(1-(6,7-difluoro-4-oxo-3,4-dihydrophthalazin-1-yl)ethyl)-N,1-dimethyl-1H-indole-5-carboxamide]		110	
CC(C)CN(C(=O)Nc1ccc(F)c(Cl)c1)C(C)c1n[nH]c(=O)c2cc(F)ccc12 (racemic) [Compound 15, 3-(3-chloro-4-fluorophenyl)-1-(1-(6-fluoro-4-oxo-3,4-dihydrophthalazin-1-yl)ethyl)-1-isobutylurea]	10		
CC(c1n[nH]c(=O)c2cc(F)c(F)cc12)N(C)C(=O)c1cc(F)c(Cl)c(F)c1 (single isomer, unassigned) [Compound 94, 4-chloro-N-(1-(6,7-difluoro-4-oxo-3,4-dihydrophthalazin-1-yl)ethyl)-3,5-difluoro-N-methylbenzamide]		13300	
C[C@H](c1n[nH]c(=O)c2cc(F)c(F)cc12)N(C)C(=O)c1cc2sc(Cl)cc2[nH]1 [Compound 79, (R)-2-chloro-N-(1-(6,7-difluoro-4-oxo-3,4-dihydrophthalazin-1-yl)ethyl)-N-methyl-4H-thieno[3,2-b]pyrrole-5-carboxamide]			EC50 [3]: 30 nM
CC(c1n[nH]c(=O)c2cc(F)c(F)cc12)N(C)C(=O)c1cc(F)c(C(F)F)c(F)c1 (single isomer, unassigned) [Compound 108, N-(1-(6,7-difluoro-4-oxo-3,4-dihydrophthalazin-1-yl)ethyl)-4-(difluoromethyl)-3,5-difluoro-N-methylbenzamide]		9950	
CC(c1n[nH]c(=O)c2cc(F)c(F)cc12)N(C)C(=O)c1cc2c(F)cc(F)cc2[nH]1 (racemic) [Compound 60, N-(1-(6,7-difluoro-4-oxo-3,4-dihydrophthalazin-1-yl)ethyl)-4,6-difluoro-N-methyl-1H-indole-2-carboxamide]	50		

Compound	EC50 [1] [nM]	EC50 [2] [nM]	other results
CC(c1nn(C)c(=O)c2cc(F)c(F)cc12)N(C)C(=O)Nc1ccc(F)c(Cl)c1 (racemic) [Compound 22, 3-(3-chloro-4-fluoro-phenyl)-1-[1-(6,7-difluoro-3-methyl-4-oxo-phthalazin-1-yl)ethyl]-1-methyl-urea]	26		
CC(c1n[nH]c(=O)c2cc(F)c(F)cc12)N(C)C(=O)c1cc2cc(F)ccc2[nH]1 (racemic) [Compound 51, N-(1-(6,7-difluoro-4-oxo-3,4-dihydrophthalazin-1-yl)ethyl)-5-fluoro-N-methyl-1H-indole-2-carboxamide]			EC50 [3]: 39 nM
CC(c1n[nH]c(=O)c2cc(F)c(F)cc12)N(C)C(=O)c1ccc(F)c(Cl)c1 (racemic) [Compound 68, 3-chloro-N-(1-(6,7-difluoro-4-oxo-3,4-dihydrophthalazin-1-yl)ethyl)-4-fluoro-N-methylbenzamide]	520		
CC(c1n[nH]c(=O)c2cc(F)c(F)cc12)N(C)C(=O)c1cc(F)c(F)c(F)c1 (racemic) [Compound 67, N-(1-(6,7-difluoro-4-oxo-3,4-dihydrophthalazin-1-yl)ethyl)-3,4,5-trifluoro-N-methylbenzamide]	740		
CC(c1n[nH]c(=O)c2cc(F)c(F)cc12)N(C)C(=O)c1cc(F)c(C(F)F)c(F)c1 (single isomer, unassigned) [Compound 109, N-(1-(6,7-difluoro-4-oxo-3,4-dihydrophthalazin-1-yl)ethyl)-4-(difluoromethyl)-3,5-difluoro-N-methylbenzamide]		110	
C[C@H](c1n[nH]c(=O)c2cc(F)c(F)cc12)N(C)C(=O)Nc1ccc(F)c(F)c1 [Compound 41, (R)(1-(6,7-difluoro-4-oxo-3,4-dihydrophthalazinyl)ethyl)methyl-3-(3,4-difluorophenyl)urea]			EC50 [3]: 24 nM
C[C@H](c1n[nH]c(=O)c2cc(F)c(F)cc12)N(C)C(=O)Nc1cc(F)c(F)c(F)c1 [Compound 42, (R)(1-(6,7-difluoro-4-oxo-3,4-dihydrophthalazinyl)ethyl)methyl-3-(3,4,5-trifluorophenyl)urea]			EC50 [3]: 25 nM
CC(C)CN(C(=O)Nc1ccc(F)c(Cl)c1)C(C)c1n[nH]c(=O)c2cc(Cl)ccc12 (racemic) [Compound 10, 3-(3-chloro-4-fluorophenyl)-1-(1-(6-chloro-4-oxo-3,4-dihydrophthalazin-1-yl)ethyl)-1-isobutylurea]	20		
CC(C)CN(C(=O)Nc1ccc(F)cc1)C(C)c1n[nH]c(=O)c2cc(F)ccc12 (racemic) [Compound 16, 1-(1-(6-fluoro-4-oxo-3,4-dihydrophthalazin-1-yl)ethyl)-3-(4-fluorophenyl)-1-isobutylurea]	16		
CC(c1n[nH]c(=O)c2cc(F)c(F)cc12)N(C)C(=O)c1cc2sccc2[nH]1 (single isomer, unassigned) [Compound 81, N-(1-(6,7-difluoro-4-oxo-3,4-dihydrophthalazin-1-yl)ethyl)-N-methyl-4H-thieno[3,2-b]pyrrole-5-carboxamide]		110	
CC(c1n[nH]c(=O)c2cc(F)c(F)cc12)N(C)C(=O)c1cnc(C(F)(F)F)c(F)c1 (racemic) [Compound 114, N-(1-(6,7-difluoro-4-oxo-3,4-dihydrophthalazin-1-yl)ethyl)-5-fluoro-N-methyl-6-(trifluoromethyl)nicotinamide]	4180		
CC(c1n[nH]c(=O)c2ccccc12)N(C)C(=O)Nc1ccc(F)c(Cl)c1 (single isomer, unassigned) [Compound 3, 3-(3-chloro-4-fluoro-phenyl)-1-methyl-1-[1-(4-oxo-3H-phthalazin-1-yl)ethyl]urea]		14000	
CC(C)CN(C(=O)Nc1ccc(F)c(Cl)c1)C(C)c1n[nH]c(=O)c2ccccc12 (single isomer, unassigned) [Compound 5, 3-(3-chloro-4-fluoro-phenyl)-1-isobutyl-1-[1-(4-oxo-3H-phthalazin-1-yl)ethyl]urea]		10	
CC(C)CN(C(=O)Nc1ccc(F)c(Cl)c1)C(C)c1n[nH]c(=O)c2cc(F)c(F)cc12 (racemic) [Compound 27, 3-(3-chloro-4-fluorophenyl)-1-(1-(6,7-difluoro-4-oxo-3,4-dihydrophthalazin-1-yl)ethyl)-1-isobutylurea]	2		
CC(C)CN(C(=O)Nc1ccc(F)cc1)C(C)c1n[nH]c(=O)c2cc(F)ccc12 (single isomer, unassigned) [Compound 20, 1-(1-(6-fluoro-4-oxo-3,4-dihydrophthalazin-1-yl)ethyl)-3-(4-fluorophenyl)-1-isobutylurea]		8	
CC(c1n[nH]c(=O)c2cc(F)c(F)cc12)N(C)C(=O)c1ccccc1 (racemic) [Compound 74, N-(1-(6,7-difluoro-4-oxo-3,4-dihydrophthalazin-1-yl)ethyl)-N-methylbenzamide]			EC50 [3]: 17700 nM
